These results are taken from patent US6399618B1, “Compositions and methods for modulating sexual activity” (priority 1997, dated 2002).

Assay [1] deals with noradrenaline pre-contracted rabbit CC. As to the kind of experiment: Direct action on penile erection: tone of corpus cavernosal muscle strips in organ bath. Conditions: concentration from 10^-8 M to 10^-4 M; n=6. On the procedure:
Corpus cavernosal (CC) muscle strips were prepared from penises obtained from rabbit (n=6). CC strips were dissected free from tunica albungia and mounted in 10 or 25 mL organ baths containing Tyrode solution saturated with 95%O2/5% CO2 mixture.

In assay [2] the test system is male rats. Briefly: Antagonism of XVIb-induced erections by comparative compounds in rats. Type of assay: in vivo, SD rats. Conditions: for antagonism of the erectile promoting actions of XVIb: injected 30 minutes prior to XVIb 16 mg/kg ip, pindolol 0.1-3, scopolamine 0.1-3.0, haloperidol 0.01-0.3, ketanserin 0.1-3.0 mg/kg. On the procedure: Male SD rats (300-500 g; n=6 per group) were injected with (±)-Pindolol, scopolamine, haloperidol, or ketanserin, 30 minutes prior to injection of a single dose of XVIb (16 mg/kg, ip) or saline.

In assay [3] the test system is male rats. As to the kind of experiment: Rat sexual behavior, proerectile actions of XVIIa and XVIIb (ip). The format is in vivo, SD rats. Conditions: 16 mg/kg ip. On the procedure:
Male SD rats (250-300 g) were injected with XVIIa (16 mg/kg, ip), XVIIb (16 mg/kg, ip) or distilled water (ip), and observed 5 minutes later for the number of erections (as characterized by penile grooming) and the time to the first erection, over a 60 minute observation period. Six rats at a time, housed singly, were observed by two observers. Treatments were administered in a standard randomized and double blinded manner.

In assay [4] the test system is male rats. As to the kind of experiment: Rat sexual behavior, proerectile actions (injected). The format is in vivo, SD rats. Conditions: for Erections/60 minutes / Latency to the first erection: mean±sem; for Erections/60 minutes / Latency to the first erection / Responders: n=10. On the procedure:
Male SD rats (350-450 g; n=10 per group) were injected with increasing doses of XVIb (4.0-64.0 mg/kg), XVIa (1.0, 4.0 or 16 mg/kg) or saline and observed 5 minutes later, in groups of 5, for the number of erections and the time to the first erection, over a 60 minutes observation period.
In Table 2, the effects of XVIb, XVIa and saline on erection in male rats is indicated. Data is expressed as the mean±sem for 10 test animals. Data marked with an asterisk “*” indicate significant difference from saline (α<0.05) as determined by ANOVA with Tukey test for multiple comparisons.

In assay [5] the test system is male primates. As to the kind of experiment: Sexual behavior in male primates, paired observation study (penile response grades). Type of assay: in vivo, macaca fascilaris. Conditions: 1.0 mg/kg ip; N=3; observed 1 hour. On the procedure: Monkeys used for testing were separated from the cluster of cages and treated and observed in pairs in the middle of the housing environment.
N=3 for all drug-treated animals, while N=18 for saline-treated animals. […] Data are expressed as the number of test animals having a particular grade of penile response. Penile responses were scored every 10 sec for 1 hour according to the following scale:
Grade 0=glans are hidden from the view
Grade 1=glans are clearly visible
Grade 2=penis is extended
Grade 4=erection with masturbation
Grade 5=erection with masturbation and ejaculation

Where a name gives a salt, the structure may show the parent alone. Marks after values point to notes of the source that are not given here.

“1-methyl-4-trifluoromethylphenylpiperazine”: the “effect on tone of noradrenaline pre-contracted rabbit CC” value in assay [1] was “failed to reduce tone”.

Regarding `CC(C)NCC(O)COc1cccc2[nH]ccc12` (racemic) [(±)-Pindolol], the “erections after (±)-pindolol pretreatment plus XVIb” value in assay [2] (highest dose tested of (±)-pindolol, XVIb 16 mg/kg ip, n=6) turned out to be 2.0±0.4 erections/60 minutes. Further, the “antagonism of the erectile promoting actions of XVIb” value in assay [2] is “antagonized the erectile promoting actions”.

In the case of `O=c1n(CCCN2CCN(c3cccc(Cl)c3)CC2)nc2ccccn12` [Trazodone], in assay [1], the “effect on tone of noradrenaline pre-contracted rabbit CC” value is “reduced tone of rabbit CC in a dose dependent manner”.

For the molecule `CN1CCN(C(=O)Cc2ccc(Cl)c(Cl)c2)CC1` [XVIIa, 1-Methyl-4-(2-(3,4-Dichlorophenyl)acetyl)piperazine Monohydrochloride], in assay [3], the Responders was 67%, the “latency to first erection” value is 6 min and the “maximum number of erections/rat” value amounted to 3 h⁻¹.

As to `COc1ccc(CC(=O)N2CCN(C)CC2)cc1OC` [XVIIb, 1-Methyl-4-(3,4-Dimethoxyacetyl)Piperazine Monohydrochloride], in assay [3], the Responders is listed as 100%, the “latency to first erection” value is given as 16 min and the “maximum number of erections/rat” value worked out at 5 h⁻¹.

For `CN1CCN(C(=O)Cc2cccc3ccccc23)CC1` [XVIa, 1-Methyl-4(1-naphthaleneacetyl)piperazine monohydrochloride], in assay [4] (1.0 mg/kg), the Erections/60 minutes is 1.2 ± 0.3, the “Latency to the first erection” value came out at 1929 ± 432 s and the Responders turned out to be 100%. In assay [4] (4.0 mg/kg), the Erections/60 minutes came out at 3.0 ± 0.6, the “Latency to the first erection” value is 1749 ± 349 s and the Responders was 100%. Moreover, in assay [4] (16.0 mg/kg), the Erections/60 minutes is listed as 5.4 ± 0.7* #, the “Latency to the first erection” value is reported as 506 ± 105* sec and the Responders stood at 100%. The “effect on penile erections (in words)” value in assay [4] (60 minutes observation) was “increased penile erections, although to a lesser degree than XVIb”. Also, in assay [5], the “number of test animals having Grade 0 penile response (glans are hidden from the view)” value (“number … (glans are hidden from the view)” below) is 1, the “number of test animals having Grade 1 penile response (glans are clearly visible)” value (“number … (glans are clearly visible)” for short) was determined as 2, the “number of test animals having Grade 2 penile response (penis is extended)” value (“number … (penis is extended)” for short) came to 2 and the “number of test animals having Grade 3 penile response (full erection)” value (“number … (full erection)” for short) is 1. Moreover, in assay [5], the “number of test animals having Grade 4 penile response (erection with masturbation)” value (“number … (erection with masturbation)” for short) was found to be 1; the “number of test animals having Grade 5 penile response (erection with masturbation and ejaculation)” value worked out at 0.

On to `CN1[C@@H]2C[C@@H](OC(=O)[C@H](CO)c3ccccc3)C[C@H]1[C@@H]1O[C@@H]12` [scopolamine], for which, in assay [2], the “antagonism of the erectile promoting actions of XVIb” value is “antagonized the erectile promoting actions”. In addition, the “erections after scopolamine pretreatment plus XVIb” value in assay [2] (scopolamine, XVIb 16 mg/kg ip, n=6) turned out to be 1.2±0.3 erections/60 minutes.

On to “(±)-trans-N-[2-(1-(4-methyl)piperazinyl)cyclohexyl]naphthalene-2-acetamide monohydrochloride [XVb]”, for which, in assay [5], the “number … (glans are hidden from the view)” value was determined as 1, the “number … (glans are clearly visible)” value is 2, the “number … (penis is extended)” value was found to be 2 and the “number … (full erection)” value stood at 1. In assay [5], the “number … (erection with masturbation)” value came out at 0; the “number of test animals having Grade 5 penile response (erection with masturbation and ejaculation)” value was determined as 0.

As to “(±)-trans-N-methyl-[2-(1-(4-methyl)piperazinyl)cyclohexyl]naphthalene-1-acetamide monohydrochloride [Compound XVa]”, in assay [5], the “number … (glans are hidden from the view)” value came out at 1, the “number … (glans are clearly visible)” value stood at 2, the “number … (penis is extended)” value stood at 2 and the “number … (full erection)” value is 2. Besides, in assay [5], the “number … (erection with masturbation)” value was 2; the “number of test animals having Grade 5 penile response (erection with masturbation and ejaculation)” value stood at 0.

Consider “(±)-trans-[2-(1-(4-methyl)piperazinyl)cyclohexyl]naphthalene-1-acetate monohydrochloride [XVc]”, for which, in assay [5], the “number … (glans are hidden from the view)” value was 1, the “number … (glans are clearly visible)” value was 2, the “number … (penis is extended)” value is 2 and the “number … (full erection)” value is on record as 2. In assay [5], the “number … (erection with masturbation)” value was found to be 2; the “number of test animals having Grade 5 penile response (erection with masturbation and ejaculation)” value worked out at 1.
